# Measurements: patent US4639466A, “3',6-diisopentenyl-2',4'-dihydroxy-5,7-dimethoxy-isoflavan and related compounds useful as anxiolytic agents and avermectin antidotes” (Merck & Co., Inc., priority 1984, dated 1987)
# Read-outs that look alike come from different tables or passages of the source.
# Tests used:
# [1] = test system: C. elegans; test: C. elegans motility assay (effect on avermectin activity, % active worms); type: in vivo
# From the text: 1. The C. elegans motility assay:
# The procedures for the C. elegans motility assay is described in S. S. Pong et al., J. NuroChem. 34, 351-358, 1980.
# [2] = test system: benzodiazepine receptors; test: Benzodiazepine receptor binding assay (BARIN; effect on ^3 H-diazepam binding)
# [3] = test system: benzodiazepine receptors; settings: known from prior art; cited from earlier work
compound,measurement,setting,value
"COc1cc2c(c(OC)c1CC=C(C)C)CC(c1ccc(O)c(CC=C(C)C)c1O)CO2 (centres unmarked) [3',6-diisopentenyl-2',4'-dihydroxy-5,7-dimethoxyisoflavan]",antagonism of avermectin in the C. elegans motility assay,[1]; in vivo,potent antagonist of avermectin
same,% active worms,"[1]; isoflavan 5 μg/ml, avermectin 0 μg/ml",97%
same,% active worms,"[1]; isoflavan 5 μg/ml, avermectin 0.156 μg/ml",60%
same,% active worms,"[1]; isoflavan 5 μg/ml, avermectin 0.313 μg/ml",60%
same,% active worms,"[1]; isoflavan 5 μg/ml, avermectin 0.625 μg/ml",77%
same,% active worms,"[1]; isoflavan 25 μg/ml, avermectin 0 μg/ml",95%
same,% active worms,"[1]; isoflavan 25 μg/ml, avermectin 0.156 μg/ml",88%
same,% active worms,"[1]; isoflavan 25 μg/ml, avermectin 0.313 μg/ml",65%
same,% active worms,"[1]; isoflavan 25 μg/ml, avermectin 0.625 μg/ml",91%
same,blocking the highest dose of avermectin,"[1]; lowest dose level 5 μg/ml, avermectin 0.625 μg/ml",almost fully effective
same,effect on benzodiazepine binding,[2],stimulate the benzodiazepine-binding
same,EC50,"[2]; active compound (12 mg, k'=8) isolated from CH2 Cl2 extract of G. uralensis by HPLC",2 to 3 µg/mL
same,EC50 for stimulation of benzodiazepine-binding,[2]; stimulation of binding,3 µg/mL
CC[C@H](C)[C@H]1O[C@]2(C=C[C@@H]1C)C[C@@H]1C[C@@H](C/C=C(\C)[C@@H](O[C@H]3C[C@H](OC)[C@@H](O[C@H]4C[C@H](OC)[C@@H](O)[C@H](C)O4)[C@H](C)O3)[C@@H](C)/C=C/C=C3\CO[C@@H]4[C@H](O)C(C)=C[C@@H](C(=O)O1)[C@]34O)O2 [avermectin],% active worms,"[1]; isoflavan 0 μg/ml, avermectin 0.156 μg/ml (avermectin alone)",85%
same,% active worms,"[1]; isoflavan 0 μg/ml, avermectin 0.313 μg/ml (avermectin alone)",20%
same,% active worms,"[1]; isoflavan 0 μg/ml, avermectin 0.625 μg/ml (avermectin alone)",4%
CCCCNc1c(C(=O)OCC)c(C)nc2c1cnn2CC [tracazolate],effect on benzodiazepine binding,[3],stimulates benzodiazepine binding
